Columns and labels:
Sco GlgEI-V279S [1] = target: T1, Sco GlgEI-V279S (Streptomyces coelicolor, UniProt Q9L1K2, V279S); conditions: earlier work; cited from earlier work
Sco GlgEI-V279S [2] = target: T1, Sco GlgEI-V279S; conditions: ratio of Ki values

T1 sequence (Q9L1K2 whole entry V279S): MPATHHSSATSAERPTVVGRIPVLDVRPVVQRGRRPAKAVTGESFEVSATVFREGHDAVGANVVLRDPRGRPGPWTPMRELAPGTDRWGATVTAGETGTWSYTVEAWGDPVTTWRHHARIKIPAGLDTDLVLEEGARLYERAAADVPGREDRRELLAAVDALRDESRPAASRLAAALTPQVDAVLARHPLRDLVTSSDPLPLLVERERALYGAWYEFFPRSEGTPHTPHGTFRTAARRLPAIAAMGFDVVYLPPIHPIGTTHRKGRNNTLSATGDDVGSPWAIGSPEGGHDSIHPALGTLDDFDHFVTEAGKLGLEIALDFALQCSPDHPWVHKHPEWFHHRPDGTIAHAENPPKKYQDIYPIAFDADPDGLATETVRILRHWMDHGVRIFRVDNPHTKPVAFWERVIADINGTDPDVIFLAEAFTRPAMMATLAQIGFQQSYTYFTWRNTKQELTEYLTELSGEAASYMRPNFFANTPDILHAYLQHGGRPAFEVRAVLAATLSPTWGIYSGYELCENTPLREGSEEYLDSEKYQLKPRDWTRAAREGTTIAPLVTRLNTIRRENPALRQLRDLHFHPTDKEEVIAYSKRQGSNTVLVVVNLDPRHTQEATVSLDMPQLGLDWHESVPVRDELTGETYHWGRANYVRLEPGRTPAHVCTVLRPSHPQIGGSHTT

Compound	inhibitory activity against Sco GlgEI-V279S (in words) (Sco GlgEI-V279S [1])	fold more potent than previously reported inhibitor 4 (Sco GlgEI-V279S [2]; 5 versus 4) [fold]	fold more potent than two carbon phosphonate 6 (Sco GlgEI-V279S [2]; 5 versus 6) [fold]
OC[C@H]1N[C@H](CO)[C@@H](O[C@H]2O[C@H](CO)[C@@H](O)[C@H](O)[C@H]2O)[C@@H]1O [Compound 4, 2,5-dideoxy-3-O-α-D-glucopyranosyl-2,5-imino-D-mannitol]	moderate inhibitory activity		
O=P(O)(O)CN1C(CO)C(O)C(O[C@H]2O[C@H](CO)[C@@H](O)[C@H](O)[C@H]2O)C1CO (stereo partly drawn) [Compound 5, ((3-Hydroxy-2,5-bis(hydroxymethyl)-(3-O-α-D-glucopyranosyl)pyrrolidin-1-yl)methyl)phosphonic acid]		2	2
